From publication PMC11076327, “CXCR2 antagonist navarixin in combination with pembrolizumab in select advanced solid tumors: a phase 2 randomized trial” (Investigational New Drugs, 2024)

What was measured:
[1] = system: metastatic castration-resistant prostate cancer (CRPC) preclinical models; design: method as in PMID 31801883; conditions: ref [6]; cited from earlier work
melanoma = melanoma in vivo; ref [13], [14]; cited from earlier work
[2] = system: pancreatic ductal adenocarcinoma cells; design: method as in PMID 30396947, PMID 29749433; conditions: ref [15], [16]; cited from earlier work
liver metastases = system: liver metastases; design: method as in PMID 21035946; conditions: liver metastases in vivo; ref [17]; cited from earlier work
[3] = system: triple-negative breast cancer cells; design: method as in PMID 30396947, PMID 29749433; conditions: ref [15], [16]; cited from earlier work
CRC = CRC in vivo; ref [13], [14]; cited from earlier work
[4] = Navarixin pharmacokinetics in combination with pembrolizumab; assay type: in vivo, human; conditions: for tlast: median (range); for AUC(0-inf) / AUC(0-t) / Cmax: human, plasma, oral, geometric mean (% geometric CV); for Geometric mean trough concentration: all tumor types combined
Description: Primary endpoints were objective response rate (ORR; proportion of patients with confirmed complete or partial response) by RECIST v1.1 as assessed by the investigator and safety based on the occurrence of dose-limiting toxicities (DLTs), adverse events (AEs), and treatment discontinuations because of AEs. Secondary endpoints included investigator-assessed ORR by immune-related RECIST (iRECIST), investigator-assessed progression-free survival (PFS; time from first dose of study drug until the first documented disease progression or death from any cause) by RECIST v1.1 and iRECIST, overall survival (OS; time from first dose of study drug until death from any cause), pharmacodynamics (assessed via changes in ANC), and PK of navarixin when administered in combination with pembrolizumab.
Blood samples for assessment of ANC were collected predose on day 1 of every cycle; between 6 and 12 hours after dosing on days 1, 3, and 8 of cycle 1; and between 6 and 12 hours after dosing on day 1 of cycle 2. Blood samples for assessment of navarixin pharmacokinetic parameters were collected predose and at 1, 2, 4, 6, and between 8 and 12 hours after dosing on day 1 of cycle 1; predose and between 6 and 12 hours after dosing on days 3 and 8 of cycle 1; predose and at 1, 2, 4, 6, and between 8 and 12 hours after dosing on day 1 of cycle 2; and predose during cycles 3 and 4. […]

[5] = system: absolute neutrophil count (ANC) and sputum neutrophil count; design: method as in PMID 25695403, PMID 22702508; conditions: patients with chronic obstructive pulmonary disease and asthma; ref [10], [11]; cited from earlier work
[6] = system: treatment-refractory metastatic CRPC; design: method as in PMID 31774688; conditions: pembrolizumab monotherapy, 9/199, ref [22]; cited from earlier work
[7] = system: mismatch repair–proficient CRC; design: method as in PMID 26028255; conditions: 18 patients with mismatch repair–proficient CRC; ref [21]; cited from earlier work
[8] = system: previously treated advanced NSCLC; design: method as in PMID 31154919; conditions: pembrolizumab monotherapy; previously treated advanced NSCLC cohort; 103/449; ref [24]; cited from earlier work
[9] = system: metastatic triple-negative breast cancer; design: method as in PMID 34476645; conditions: in combination with paclitaxel; ref [35]; cited from earlier work
[10] = CRPC, navarixin 30 mg + pembrolizumab 200 mg, Cycle 1 day 1, n=20
[11] = CRPC, navarixin 30 mg + pembrolizumab 200 mg, Cycle 2 day 1 (steady state), n=18
[12] = CRPC, navarixin 100 mg + pembrolizumab 200 mg, Cycle 1 day 1, n=20
[13] = CRPC, navarixin 100 mg + pembrolizumab 200 mg, Cycle 2 day 1 (steady state), n=17
[14] = MSS CRC, navarixin 30 mg + pembrolizumab 200 mg, Cycle 1 day 1, n=19
[15] = MSS CRC, navarixin 30 mg + pembrolizumab 200 mg, Cycle 2 day 1 (steady state), n=15
[16] = MSS CRC, navarixin 100 mg + pembrolizumab 200 mg, Cycle 1 day 1, n=21
[17] = MSS CRC, navarixin 100 mg + pembrolizumab 200 mg, Cycle 2 day 1 (steady state), n=18
[18] = NSCLC, navarixin 30 mg + pembrolizumab 200 mg, Cycle 1 day 1, n=12
[19] = NSCLC, navarixin 30 mg + pembrolizumab 200 mg, Cycle 2 day 1 (steady state), n=12
[20] = NSCLC, navarixin 100 mg + pembrolizumab 200 mg, Cycle 1 day 1, n=13
[21] = NSCLC, navarixin 100 mg + pembrolizumab 200 mg, Cycle 2 day 1 (steady state), n=11

**Q.** Which “Effect on neuroendocrine lineage plasticity and enzalutamide resistance” value [1] does the source give for CC[C@@H](Nc1c(Nc2cccc(C(=O)N(C)C)c2O)c(=O)c1=O)c1ccc(C)o1 [Navarixin] here?
**A.** reversed neuroendocrine lineage plasticity and enzalutamide resistance

**Q.** What about the “Effect on tumor growth” value (melanoma) of the same compound?
**A.** inhibited tumor growth

**Q.** What about the “Effect on colony formation” value [2] of the same compound?
**A.** inhibited colony formation

**Q.** And the “Effect on apoptosis of malignant cells” value (liver metastases)?
**A.** induced apoptosis

**Q.** What about the “Effect on colony formation” value [3] of the same compound?
**A.** inhibited colony formation

**Q.** And the “Effect on tumor growth” value (CRC)?
**A.** inhibited tumor growth

**Q.** And the tlast [4, 10]?
**A.** 8.00 (7.83–10.00) h

**Q.** What about the tlast [4, 11] of the same compound?
**A.** 8.01 (6.50–8.70) h

**Q.** What about the tlast [4, 12] of the same compound?
**A.** 8.00 (7.37–8.08) h

**Q.** What about the tlast [4, 13] of the same compound?
**A.** 8.00 (5.93–8.17) h

**Q.** What about the tlast [4, 14] of the same compound?
**A.** 8.0 (7.27–8.33) h

**Q.** And the tlast [4, 15]?
**A.** 7.93 (6.00–8.17) h

**Q.** And the tlast [4, 16]?
**A.** 8.00 (7.12–10.02) h

**Q.** And the tlast [4, 17]?
**A.** 8.00 (7.87–8.13) h

**Q.** And the tlast [4, 18]?
**A.** 8.00 (7.83–8.25) h

**Q.** And the tlast [4, 19]?
**A.** 8.00 (7.80–8.08) h

**Q.** What about the tlast [4, 20] of the same compound?
**A.** 8.00 (6.00–8.07) h

**Q.** What about the tlast [4, 21] of the same compound?
**A.** 8.00 (6.03–8.08) h

**Q.** What about the “AUC0-∞, navarixin 100 mg versus navarixin 30 mg” value ([4]; across all tumor types) of the same compound?
**A.** approximately 2.5 fold

**Q.** And the AUC(0-inf) ([4]; CRPC, navarixin 30 mg + pembrolizumab 200 mg, Cycle 1 day 1, n=19)?
**A.** 376 ng·h/mL

**Q.** And the AUC(0-t) [4, 10]?
**A.** 363 ng·h/mL

**Q.** What about the AUC(0-inf) [4, 11] of the same compound?
**A.** 534 ng·h/mL

**Q.** What about the AUC(0-t) [4, 11] of the same compound?
**A.** 457 ng·h/mL

**Q.** What about the Cmax [4, 11] of the same compound?
**A.** 191 ng/mL

**Q.** And the AUC(0-inf) ([4]; CRPC, navarixin 100 mg + pembrolizumab 200 mg, Cycle 1 day 1, n=18)?
**A.** 954 ng·h/mL

**Q.** What about the AUC(0-t) [4, 12] of the same compound?
**A.** 853 ng·h/mL

**Q.** What about the AUC(0-inf) ([4]; CRPC, navarixin 100 mg + pembrolizumab 200 mg, Cycle 2 day 1 (steady state), n=11) of the same compound?
**A.** 1340 ng·h/mL

**Q.** And the AUC(0-t) [4, 13]?
**A.** 925 ng·h/mL

**Q.** And the Cmax [4, 13]?
**A.** 272 ng/mL

**Q.** What about the AUC(0-inf) ([4]; MSS CRC, navarixin 30 mg + pembrolizumab 200 mg, Cycle 1 day 1, n=17) of the same compound?
**A.** 482 ng·h/mL

**Q.** What about the AUC(0-t) [4, 14] of the same compound?
**A.** 464 ng·h/mL

**Q.** What about the Cmax [4, 14] of the same compound?
**A.** 162 ng/mL

**Q.** What about the AUC(0-inf) ([4]; MSS CRC, navarixin 30 mg + pembrolizumab 200 mg, Cycle 2 day 1 (steady state), n=10) of the same compound?
**A.** 584 ng·h/mL

**Q.** What about the AUC(0-t) [4, 15] of the same compound?
**A.** 443 ng·h/mL

**Q.** And the Cmax [4, 15]?
**A.** 147 ng/mL

**Q.** And the AUC(0-inf) ([4]; MSS CRC, navarixin 100 mg + pembrolizumab 200 mg, Cycle 1 day 1, n=16)?
**A.** 1120 ng·h/mL

**Q.** And the AUC(0-t) [4, 16]?
**A.** 1070 ng·h/mL

**Q.** And the Cmax [4, 16]?
**A.** 354 ng/mL

**Q.** What about the AUC(0-inf) ([4]; MSS CRC, navarixin 100 mg + pembrolizumab 200 mg, Cycle 2 day 1 (steady state), n=9) of the same compound?
**A.** 954 ng·h/mL

**Q.** What about the AUC(0-t) [4, 17] of the same compound?
**A.** 928 ng·h/mL

**Q.** What about the Cmax [4, 17] of the same compound?
**A.** 276 ng/mL

**Q.** What about the AUC(0-inf) ([4]; NSCLC, navarixin 30 mg + pembrolizumab 200 mg, Cycle 1 day 1, n=10) of the same compound?
**A.** 469 ng·h/mL

**Q.** And the AUC(0-t) [4, 18]?
**A.** 427 ng·h/mL

**Q.** And the Cmax [4, 18]?
**A.** 181 ng/mL

**Q.** And the AUC(0-inf) ([4]; NSCLC, navarixin 30 mg + pembrolizumab 200 mg, Cycle 2 day 1 (steady state), n=10)?
**A.** 450 ng·h/mL

**Q.** What about the AUC(0-t) [4, 19] of the same compound?
**A.** 451 ng·h/mL

**Q.** And the Cmax [4, 19]?
**A.** 179 ng/mL

**Q.** And the AUC(0-inf) ([4]; NSCLC, navarixin 100 mg + pembrolizumab 200 mg, Cycle 1 day 1, n=9)?
**A.** 1230 ng·h/mL

**Q.** And the AUC(0-t) [4, 20]?
**A.** 1140 ng·h/mL

**Q.** What about the Cmax [4, 20] of the same compound?
**A.** 324 ng/mL

**Q.** What about the AUC(0-inf) ([4]; NSCLC, navarixin 100 mg + pembrolizumab 200 mg, Cycle 2 day 1 (steady state), n=7) of the same compound?
**A.** 1360 ng·h/mL

**Q.** What about the AUC(0-t) [4, 21] of the same compound?
**A.** 1080 ng·h/mL

**Q.** What about the Cmax [4, 21] of the same compound?
**A.** 338 ng/mL

**Q.** And the Cmax ([4]; male, CRPC, navarixin 30 mg + pembrolizumab 200 mg, Cycle 1 day 1, n=20)?
**A.** 156 ng/mL

**Q.** What about the Cmax ([4]; male, CRPC, navarixin 100 mg + pembrolizumab 200 mg, Cycle 1 day 1, n=20) of the same compound?
**A.** 298 ng/mL

**Q.** And the “Geometric mean trough concentration” value ([4]; navarixin 30 mg, steady state)?
**A.** 7.71 ng/mL

**Q.** What about the “Geometric mean trough concentration” value ([4]; navarixin 100 mg, steady state) of the same compound?
**A.** 14.5 ng/mL

**Q.** And the “Steady-state exposure, 100-mg dose compared with 30-mg dose” value ([4]; steady state)?
**A.** approximately 2.5 fold

**Q.** And the “Effect on neutrophil counts” value [5]?
**A.** reductions in absolute neutrophil count (ANC) as well as sputum neutrophil count

**Q.** Which results are given for pembrolizumab?
**A.** ORR [6]: 5%; ORR [7]: 0%; ORR [8]: 23%

**Q.** Which “Benefit of combination therapy compared with paclitaxel alone” value [9] does the source give for CC(C)Cc1ccc([C@@H](C)C(=O)NS(C)(=O)=O)cc1 [reparixin] here?
**A.** no benefit
